# Results taken from patent US6555733B2, “Genes coding for amino acid deacetylases with specificity for N-acetyl-L-phosphinothricin, their isolation and use” (priority 1996, dated 2003).
# B1: N-acetyl-PPT deacetylase: deacetylase from Stenotrophomonas sp., 454 amino acids (SEQ ID NO:2), purified from E. coli as GST fusion cleavage product (protein)
# chain: MIRKTVLLTALSCALASATATAAEGQRPEVEAAAARLQRQVVEWRRDFHQHPELSNREVRTAAKVAERLRAMGLQPQTGVAVHGVVAIIKGALPGPKIALRADMDALPVTEQTGLPFASTATAEYRGEKVGVMHACGHDAHTATLLGVADALVAMRDTLPGEVMLIFQPAEEGAPPPEQGGAELMLKEGLFKEFKPEAVFGLHVFSSVQAGQIAVRGGPLMAASDRFAITVNGRQTHGSAPWNGIDPIVAASDLIGTAQTIVSRRANLSKQPAVLTFGAIKGGIRYNIIPDSVEMVGTIRTFDPDMRKQIFADLRNVAEHTAAAHGATATTDIYEKDGNPATVNDPALTARMLPSLQAVVGKDNVYEPPLQMGSEDFSLYAQQVPAMFFFVGSTGAGIDPATAPSNHSPKFLLDEKALDVGLRALLQVSLDYLHGGKAG
# modifications: Stenotrophomonas sp
# Tests used:
# [1] = test system: leaves of tobacco plants (35S promoter-deac1 transformants, nontransgenic controls); test: Drop experiment on leaves of pPCVKDEAC1 tobacco plants and nontransgenic control plants; assay type: in vivo, Nicotiana tabacum; parameters: key to Drop experiment, leaf symptoms: +++: severe necrosis; ++: marked damage; +: slight lightening; −: no symptoms
# Source text: The deac1 structural gene was recloned as a 1.4 kb BamHI/SalI PCT fragment into the binary vector pPCV801 (Koncz and Schell, 1986, Mol. Gen. Genet. 204: 383-396) under control of the 35S promoter. The resulting plasmid pPCVKDEAC1 (FIG. 2) with the expression vector 35S promoter-deac1-structural gene-35S terminator was transformed in Agrobacterium tumefaciens (strain ATHV) using standard methods. Pieces of tobacco leaf (Nicotiana tabacum) were transformed with the recombinant Agrobacteria according to the method of Horsch et al., 1985, Science 227: 1229-1231 and selected on kanamycin medium, 18 independent tobacco transformants were regenerated and tested for expression of the deacetylase in the leaves. In the case of activity of the protein in the transgenic plants, a sensitivity of the leaves to N-acetyl-PPT was to be expected, because the substance in the plant is then converted into the herbicidal active compound phosphinothricin on account of the enzymatic activity of the deacetylase.
# In a drop experiment, the leaves of the transgenic plants and of a number of nontransgenic control plants were treated with 5 μl each of the following concentrations of N-acetyl-D,L-PPT: 4 mg/ml(=15 mM), 1 mg/ml(=3.75 mM), 0.4 mg/ml(=1.5 mM), 0.1 mg/ml(=0.38 mM). The treatment sites were examined for lightening or necrosis formation after 1-2 weeks. Simultaneously, the N-acetyl-PPT-specific deacetylase activity of the transformants, and also of the control plants, was measured in crude extracts. To do this, 100 mg each of leaf material were homogenized in 200 μl of PBS buffer, the cell debris was centrifuged off and the protein-containing supernatants were dialyzed overnight at 4° C. against the same buffer. 10 μl each of these samples were incubated with 0.1 mM [^14C]-N-acetyl-L-PPT overnight at 37° C. The batches were then analyzed in the HPLC, as described above, for formation of [^14C]-L-PPT.
# [2] = test system: flower buds of tobacco plants (tap1 promoter-deac1 transformants, NT Sam NN controls); test: Flower bud treatment, induced male sterility in pPCVTDEAC1 tobacco plants; assay type: in vivo, Nicotiana tabacum
# Source text: Using standard methods, the tapetum-specific promoter of the tap1 gene from snapdragon (Antirrhinum majus) was fused in the vector pUC18 as a 2.2 kb EcoRI/BamHI fragment with the deac1 structural gene (1.4 kb BamHI/SalI-PCR fragment) and the 35S terminator. The expression cassette tap1 promoter-deac structural gene-35S terminator thus resulting was cloned into the binary vector pPCV801 as a 3.8 kb EcoRI fragment instead of the 35S promoter/terminator region (plasmid pPCVTDEAC1, FIG. 3). The transformation of tobacco was carried out as described in Example 4.
# In the case of tapetum-specific expression of the deacetylase, it should be possible by treatment of the flower buds with N-acetyl-PPT to induce male-sterile flowers. The conversion of the PPT derivative into the herbicidal active compound phosphinothricin leads to selective damage to the tapetum tissue, by means of which the development of functional pollen is prevented.
# In each case only one side of the inflorescences (the total area of the developing flower buds) was treated with N-acetyl-PPT, the other side of the influorescences remained untreated in order to ensure that the phenomena to be observed are not to be attributed to deformities of the respective plants. The treatment was carried out at a time at which the individual buds were not larger than 5 mm (active phase for tapetum promoter). The tobacco transformants and also a number of NT Sam NN control plants were treated 3× with 0.2% N-acetyl-D,L-PPT(=7.5 mM)/0.1% Genapol (wetting agent) within one week. After the blooming of the buds (about 9-11 days after conclusion of the treatment), the plants were investigated for the occurrence of male-sterile flowers.
# [3] = test system: N-acetyl-PPT deacetylase (Deac1 protein); test: Radioactive test of purified N-acetyl-PPT deacetylase (Deac1) with [14C]-N-acetyl-L-PPT, HPLC; assay type: biochemical, Stenotrophomonas sp.; conditions: for Km: substrate [14C]-N-acetyl-L-PPT 0.01-1 mM, pH=8.0, 1 mM CoCl2, 3-fold determinations; for Spec. activity: substrate [14C]-N-acetyl-L-PPT
# [4] = test system: N-acetyl-PPT deacetylase (Deac1 protein); test: Nonradioactive test, substrate specificity of purified deacetylase (amino acid analyzer); assay type: biochemical, Stenotrophomonas sp.; conditions: 25 mM substrate; for Rel. activity: 60 min, 28 °C, 5 μg enzyme, hippuric acid set equal to 100%
# Procedure: (2) Nonradioactive test: To investigate the substrate specificity, 5 μg each of purified enzyme were incubated for 60 min. at 28° C. in 20 μl batches in PBS buffer with, in each case, 25 mM of a certain N-acetyl- or N-acylamino acid. The samples were then measured in an amino acid analyzer (Biotronic LC 5001) for formation of the free amino acids. The specific activities were determined in [nmol of amino acid/min/mg of protein]. For the N-acetyl-PPT deacetylase, a pH optimum of pH=8 (see Tab. 1) and a temperature optimum of 37° C. (see Tab. 2) were determined. […] By addition of 1 mM CoCl2, the enzyme activity could be increased by about 20%.
# [5] = test system: deac2 gene product; test: Conversion of N-acetylated amino acids by permeabilized E. coli XLI blue cells with pGK81; assay type: cell-based, Comamonas acidovorans; conditions: 25 mM, 3 hours at 30 °C
# Procedure: To investigate the substrate specificity of the deac2 gene product from Comamonas acidovorans, cells of E. coli strain XLI blue permeabilized by toluene/ethanol treatment were used with and without the vector pGK81. The induction of the deac2 gene repressed by the Lac^i repressor present in this strain could be achieved by IPTG treatment. The permeabilized cells were incubated for 3 hours at 30° C. with various N-acetylated amino acids (final concentration 25 mM) and the supernatants were investigated with the aid of an amino acid analyzer. It turned out here that more than 20% of the N-acetylornithine made available was converted. For N-acetyl-phosphinothricin too, an increasing deacetylation to phosphinothricin, analogous to the concentration of N-acetylphosphinothricin employed, could be found (Table 7).
# The concentrations of the N-acetylated amino acids employed and the amino acids formed by deacetylation are indicated.
molecule,measurement,setting,value
"CC(=O)NC(CCP(C)(=O)O)C(=O)O (racemic) [N-acetyl-D,L-PPT, N-acetylphosphinothricin]","Drop experiment, leaf symptoms","[1]; Control plant, 0.1 mg/ml",−
same,"Drop experiment, leaf symptoms","[1]; Control plant, 0.4 mg/ml",−
same,"Drop experiment, leaf symptoms","[1]; Control plant, 1 mg/ml",−
same,"Drop experiment, leaf symptoms","[1]; Control plant, 4 mg/ml, 5 μl, after 1-2 weeks",−
same,concentration to which leaves still react sensitively,"[1]; constitutive expression of the deac gene, greenhouse plants (=0.2 mg/ml of L-enantiomer)",0.4 mg/mL
same,"Drop experiment, leaf symptoms","[1]; plant pPCVK9, 0.1 mg/ml",−
same,"Drop experiment, leaf symptoms","[1]; plant pPCVK9, 0.4 mg/ml",−
same,"Drop experiment, leaf symptoms","[1]; plant pPCVK9, 1 mg/ml",+
same,"Drop experiment, leaf symptoms","[1]; plant pPCVK9, 4 mg/ml",+++
same,"Drop experiment, leaf symptoms","[1]; plant pPCVK14, 0.1 mg/ml",−
same,"Drop experiment, leaf symptoms","[1]; plant pPCVK14, 0.4 mg/ml",−
same,"Drop experiment, leaf symptoms","[1]; plant pPCVK14, 1 mg/ml",+
same,"Drop experiment, leaf symptoms","[1]; plant pPCVK14, 4 mg/ml",+
same,"Drop experiment, leaf symptoms","[1]; plant pPCVK15, 0.1 mg/ml",−
same,"Drop experiment, leaf symptoms","[1]; plant pPCVK15, 0.4 mg/ml",+
same,"Drop experiment, leaf symptoms","[1]; plant pPCVK15, 1 mg/ml",+
same,"Drop experiment, leaf symptoms","[1]; plant pPCVK15, 4 mg/ml",++
same,"Drop experiment, leaf symptoms","[1]; plant pPCVK16, 0.1 mg/ml",−
same,"Drop experiment, leaf symptoms","[1]; plant pPCVK16, 0.4 mg/ml",−
same,"Drop experiment, leaf symptoms","[1]; plant pPCVK16, 1 mg/ml",+
same,"Drop experiment, leaf symptoms","[1]; plant pPCVK16, 4 mg/ml",+
same,"Drop experiment, leaf symptoms","[1]; plant pPCVK17, 0.1 mg/ml",−
same,"Drop experiment, leaf symptoms","[1]; plant pPCVK17, 0.4 mg/ml",−
same,"Drop experiment, leaf symptoms","[1]; plant pPCVK17, 1 mg/ml",+
same,"Drop experiment, leaf symptoms","[1]; plant pPCVK17, 4 mg/ml",+
same,"Number of sterile or pollen-reduced flowers, treated","[2]; Control plant, 3x 0.2% N-acetyl-D,L-PPT/0.1% Genapol within one week",0
same,"Number of sterile or pollen-reduced flowers, treated",[2]; plant pPCT16,10
same,"Number of sterile or pollen-reduced flowers, treated",[2]; plant pPCVT14,18
same,"Number of sterile or pollen-reduced flowers, treated",[2]; plant pPCVT15,0
same,induction of male-sterile flowers (in words),"[2]; tapetum-specific expression, buds treated with 2 mg/ml (=1 mg/ml of L-enantiomer), greenhouse plants",induction of male-sterile flowers was achieved
[Cl-].[Cl-].[Co+2] [CoCl2],increase of enzyme activity,[3],about 20%
"O=C(O)CNC(=O)c1ccccc1 [Hippuric acid, N-benzoylglycine]",conversion by the deacetylase (in words),[4],highest conversions
same,Rel. activity,[4],100%
"CC(=O)N[C@@H](CCC(=O)O)C(=O)O [N-Ac-glutamic acid, N-acetyl-L-glutamate]",conversion by the deacetylase (in words),[4],highest conversions
same,Rel. activity,[4],100%
CC(=O)N[C@@H](CCC(N)=O)C(=O)O [N-Ac-glutamine],Rel. activity,[4],30%
CC(=O)NCC(=O)O [N-Ac-glycine],Rel. activity,[4],59%
CC(=O)N[C@@H](Cc1cnc[nH]1)C(=O)O [N-Ac-histidine],Rel. activity,[4],43%
CC(=O)N[C@@H](CC(C)C)C(=O)O [N-Ac-leucine],Rel. activity,[4],33%
CSCCC(NC(C)=O)C(=O)O (stereo not shown) [N-Ac-methionine],Rel. activity,[4],0%
CC(=O)N[C@@H](CCCN)C(=O)O [N-Ac-ornithine],Rel. activity,[4],37%
CC(=O)NC(Cc1ccccc1)C(=O)O (stereo not shown) [N-Ac-phenylalanine],Rel. activity,[4],24%
CC(=O)N1CCCC1C(=O)O (stereo not shown) [N-Ac-proline],Rel. activity,[4],0%
CC(=O)NC(CO)C(=O)O (stereo not shown) [N-Ac-serine],Rel. activity,[4],4%
CC(=O)NC(Cc1c[nH]c2ccccc12)C(=O)O (stereo not shown) [N-Ac-tryptophan],Rel. activity,[4],0.4%
CC(=O)N[C@@H](Cc1ccc(O)cc1)C(=O)O [N-Ac-tyrosine],Rel. activity,[4],11%
CC(=O)N[C@H](C(=O)O)C(C)C [N-Ac-valine],Rel. activity,[4],2%
"CC(=O)N[C@@H](CCP(C)(=O)O)C(=O)O [N-acetyl-L-PPT, N-acetyl-L-phosphinothricin]",Km,[3],670 µM
same,affinity below that for hippuric acid and N-acetyl-L-glutamate,[4],approximately 50%
same,Rel. activity,[4],43%
"CC(=O)N[C@@H](CCCN)C(=O)O [N-acetyl-ornithine, N-acetylornithine]",share of substrate made available that was converted,[5],more than 20%
B1,Spec. activity,[3]; 28 °C,9.6 nmol/min/mg of protein
same,Spec. activity,[3]; 37 °C,16.8 nmol/min/mg of protein
same,Spec. activity,[3]; 50 °C,14.9 nmol/min/mg of protein
same,Spec. activity,[3]; 60 °C,4.3 nmol/min/mg of protein
same,Spec. activity,[3]; pH 6,2.4 mol/min/mg of protein
same,Spec. activity,[3]; pH 8,12.0 mol/min/mg of protein
same,Km,[3],670 µM
